Data: ChEMBL document CHEMBL6121016, “Design, Synthesis, and Biological Evaluation of 1,3,4-Thiadiazole Derivatives as Novel Potent Peptide Deformylase Inhibitors for Combating Drug-Resistant Gram-Positive and -Negative Bacteria” (J Med Chem, 2025)
In brackets after ≈: the same amount, converted by molar mass. Activity calls are given as the source filed them. The rule behind the calls is not given here.

Assays:
Staphylococcus aureus [1] = assay: Antibacterial activity against methicillin-resistant Staphylococcus aureus ATCC 33591 after 16 to 18 hrs by broth microdilution method; assay type: functional; conditions: time 16-18 hrs
Staphylococcus aureus [2] = assay: Antibacterial activity against methicillin-resistant Staphylococcus aureus Bio-090770 after 16 to 18 hrs by broth microdilution method; assay type: functional; conditions: time 16-18 hrs
Staphylococcus aureus [3] = assay: Antibacterial activity against methicillin-susceptible Staphylococcus aureus ATCC 29213 after 16 to 18 hrs by broth microdilution method; assay type: functional; conditions: time 16-18 hrs
Staphylococcus aureus [4] = assay: Antibacterial activity against methicillin-susceptible Staphylococcus aureus ATCC 25923 after 16 to 18 hrs by broth microdilution method; assay type: functional; conditions: time 16-18 hrs
Staphylococcus aureus [5] = assay: Antibacterial activity against methicillin-susceptible Staphylococcus aureus ATCC 13709 after 16 to 18 hrs by broth microdilution method; assay type: functional; conditions: time 16-18 hrs
[6] = test system: Staphylococcus epidermidis; assay: Antibacterial activity against Staphylococcus epidermidis after 16 to 18 hrs by broth microdilution method; assay type: functional; conditions: time 16-18 hrs
Escherichia coli [7] = assay: Antibacterial activity against Escherichia coli ATCC 25922 after 16 to 18 hrs by broth microdilution method; assay type: functional; conditions: time 16-18 hrs
Klebsiella pneumoniae [8] = assay: Antibacterial activity against Klebsiella pneumoniae CICC 21611 after 16 to 18 hrs by broth microdilution method; assay type: functional; conditions: time 16-18 hrs
Acinetobacter baumannii [9] = assay: Antibacterial activity against Acinetobacter baumannii Bio 34235 after 16 to 18 hrs by broth microdilution method; assay type: functional; conditions: time 16-18 hrs
Acinetobacter baumannii [10] = assay: Antibacterial activity against Acinetobacter baumannii Bio 53272 after 16 to 18 hrs by broth microdilution method; assay type: functional; conditions: time 16-18 hrs
Acinetobacter baumannii [11] = assay: Antibacterial activity against Acinetobacter baumannii Bio 24253 after 16 to 18 hrs by broth microdilution method; assay type: functional; conditions: time 16-18 hrs
Acinetobacter baumannii [12] = assay: Antibacterial activity against Acinetobacter baumannii Bio 69680 after 16 to 18 hrs by broth microdilution method; assay type: functional; conditions: time 16-18 hrs
Klebsiella pneumoniae [13] = assay: Antibacterial activity against Klebsiella pneumoniae CICC 21092 after 16 to 18 hrs by broth microdilution method; assay type: functional; conditions: time 16-18 hrs
Escherichia coli [14] = assay: Antibacterial activity against Escherichia coli ATCC 10663 after 16 to 18 hrs by broth microdilution method; assay type: functional; conditions: time 16-18 hrs
Escherichia coli [15] = assay: Antibacterial activity against Escherichia coli ATCC 10661 after 16 to 18 hrs by broth microdilution method; assay type: functional; conditions: time 16-18 hrs
[16] = Cytotoxicity against human HEK293T cells assessed as cell viability at 3.125 to 100 uM incubated for 24 hrs by MTT assay; assay type: toxicity, cell-based, HEK-293T
[17] = Cytotoxicity against human HeLa cells assessed as cell viability at 3.125 to 100 uM incubated for 24 hrs by MTT assay; assay type: toxicity, cell-based
Escherichia coli [18] = assay: Potency index, ratio of LBM415 MIC to test compound MIC for antibacterial activity against Escherichia coli after 16 to 18 hrs by broth microdilution method; assay type: functional; conditions: time 16-18 hrs
Acinetobacter baumannii [19] = assay: Potency index, ratio of ciprofloxacin MIC to test compound MIC for antibacterial activity against drug-resistant Acinetobacter baumannii after 16 to 18 hrs by broth microdilution method; assay type: functional; conditions: time 16-18 hrs
Cell membrane [20] = assay: Induction of cell membrane disruption in methicillin-resistant Staphylococcus aureus assessed as […] integrity by NucGreen/EthD-III costain fluorescent assay; assay type: subcellular
Cell membrane [21] = assay: Induction of cell membrane disruption in Acinetobacter baumannii assessed as outer membrane integrity by NucGreen/EthD-III costain fluorescent assay; assay type: subcellular
Staphylococcus aureus [22] = assay: Induction of morphological changes in methicillin-resistant Staphylococcus aureus RB 3641 assessed as disintegration of cells at 8 times of MIC incubated for 4 hrs by Field emission scanning electron microscopic analysis; assay type: functional, organism-based
Acinetobacter baumannii [23] = assay: Induction of intracellular ROS production in Acinetobacter baumannii Bio 53272 cells assessed as membrane potential imbalance incubated for 12 hrs by DCFH-DA probe based ROS assay; assay type: functional, organism-based
Staphylococcus aureus [24] = assay: Anti-biofilm activity against methicillin-resistant Staphylococcus aureus assessed as growth inhibition at 0.031 microg/ml incubated for 24 hrs by microplate reader analysis relative to control; assay type: functional
Acinetobacter baumannii [25] = assay: Anti-biofilm activity against of Acinetobacter baumannii assessed as growth inhibition at 2 microg/ml incubated for 24 hrs by microplate reader analysis relative to control; assay type: functional
Staphylococcus aureus [26] = assay: Anti-biofilm activity against mature methicillin-resistant Staphylococcus aureus at 8 microg/ml incubated for 24 hrs by microplate reader analysis; assay type: functional; conditions: dose 8 µg/ml
Staphylococcus aureus [27] = assay: Anti-biofilm activity against methicillin-resistant Staphylococcus aureus assessed as growth inhibition at 4 microg/ml incubated for 24 hrs by microplate reader analysis relative to control; assay type: functional
Acinetobacter baumannii [28] = assay: Anti-biofilm activity against Acinetobacter baumannii assessed as growth inhibition at 32 microg/ml incubated for 24 hrs by microplate reader analysis relative to control; assay type: functional
Peptide deformylase = molecular target: T1, Peptide deformylase (Staphylococcus aureus, UniProt P68826); assay: Inhibition of Staphylococcus aureus PDF-Ni assessed as enzyme activity incubated for 30 min by fluorescamine method
T1 sequence (P68826 whole entry): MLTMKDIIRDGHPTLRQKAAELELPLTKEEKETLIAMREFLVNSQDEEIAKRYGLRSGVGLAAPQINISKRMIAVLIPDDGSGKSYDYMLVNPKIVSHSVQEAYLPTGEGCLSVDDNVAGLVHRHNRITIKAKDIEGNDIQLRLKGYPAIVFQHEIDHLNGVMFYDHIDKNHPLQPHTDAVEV

[29] = Acute toxicity in KM mouse infected with drug-resistant Acinetobacter baumannii assessed as survival rate at 40 mg/kg; assay type: organism-based; conditions: in vivo
Acinetobacter baumannii [30] = assay: In vivo anti-bacterial activity against drug-resistant Acinetobacter baumannii infected MK mouse; assay type: functional
[31] = Acute toxicity in KM mouse infected with drug-resistant Acinetobacter baumannii assessed as pathological changes in lungs at 40 mg/kg by HE staining based analysis; assay type: organism-based; conditions: in vivo
[32] = Acute toxicity in KM mouse infected with drug-resistant Acinetobacter baumannii assessed as pathological changes in kidney at 40 mg/kg by HE staining based analysis; assay type: organism-based; conditions: in vivo
[33] = Acute toxicity in normal mouse assessed as death at 200 mg/kg, iv observed for 14 days; assay type: organism-based; conditions: in vivo, 336 h, time 14 day
[34] = Acute toxicity in normal mouse assessed as death at 400 mg/kg, iv observed for 14 days; assay type: organism-based; conditions: in vivo, 336 h, time 14 day
Staphylococcus aureus [35] = assay: Bactericidal activity against methicillin-resistant Staphylococcus aureus assessed as bacteriostatic efficiency at 0.25 microg/mL incubated for 24 hrs by time killing analysis relative to control; assay type: functional; conditions: dose 0.25 µg/ml
Acinetobacter baumannii [36] = assay: Bactericidal activity against drug-resistant Acinetobacter baumannii assessed as bacteriostatic efficiency at 0.5 to 2 microg/mL by time killing analysis; assay type: functional, organism-based; conditions: dose 0.5-2 µg/ml, time 0-25 hrs
Acinetobacter baumannii [37] = assay: Bactericidal activity against drug-resistant Acinetobacter baumannii assessed as bacteriostatic efficiency measured after 0 to 24 hrs by time killing analysis; assay type: functional, organism-based; conditions: dose 0.5-2 µg/ml, time 0-24 hrs
Acinetobacter baumannii [38] = assay: Bactericidal activity against drug-resistant Acinetobacter baumannii assessed as bacteriostatic efficiency at 2 microg/mL measured within 24 hrs by time killing analysis relative to control; assay type: functional, organism-based; conditions: dose 2.0 µg/ml
Acinetobacter baumannii [39] = assay: In vivo anti-bacterial activity against drug-resistant Acinetobacter baumannii infected MK mouse assessed as pathological changes of organs at 40 mg/kg; assay type: functional, organism-based
[40] = Acute toxicity in normal mouse assessed as aberrant behaviors at 200 mg/kg, iv observed for 14 days; assay type: organism-based; conditions: in vivo, 336 h, time 14 day
[41] = Acute toxicity in normal mouse assessed as aberrant behaviors at 400 mg/kg, iv observed for 14 days; assay type: organism-based; conditions: in vivo, 336 h, time 14 day

With `CCCC[C@H](CN(O)C=O)C(=O)N1CCC[C@H]1c1nnc(-c2cccs2)s1` the MIC (Staphylococcus aureus [1]) was 0.125 µg/mL (≈ 0.306 µM), the MIC (Staphylococcus aureus [2]) was 0.25 µg/mL (≈ 0.612 µM) and the MIC (Staphylococcus aureus [3]) was 0.25 µg/mL (≈ 0.612 µM). It also gave an MIC (Staphylococcus aureus [4]) of 0.25 µg/mL (≈ 0.612 µM), an MIC (Staphylococcus aureus [5]) of 0.25 µg/mL (≈ 0.612 µM) and an MIC [6] of 0.125 µg/mL (≈ 0.306 µM). The MIC (Escherichia coli [7]) was 2 µg/mL (≈ 4.9 µM), the MIC (Klebsiella pneumoniae [8]) was 8 µg/mL (≈ 19.6 µM) and the MIC (Acinetobacter baumannii [9]) was 4 µg/mL (≈ 9.79 µM). For the same compound, the MIC (Acinetobacter baumannii [10]) was 0.5 µg/mL (≈ 1.22 µM), the MIC (Acinetobacter baumannii [11]) was 4 µg/mL (≈ 9.79 µM) and the MIC (Acinetobacter baumannii [12]) was 4 µg/mL (≈ 9.79 µM). The MIC (Klebsiella pneumoniae [13]) was 16 µg/mL (≈ 39.2 µM), the MIC (Escherichia coli [14]) was 8 µg/mL (≈ 19.6 µM) and the MIC (Escherichia coli [15]) was 4 µg/mL (≈ 9.79 µM). The IC50 at 24 h [16] was > 100 µM, the IC50 at 24 h [17] was > 100 µM and the Ratio (Escherichia coli [18]) was >16. For the same compound, the Ratio (Acinetobacter baumannii [19]) was >64, the Activity (Cell membrane [20]) was “Active” and the Activity (Cell membrane [21]) was “Active”. The Activity (Staphylococcus aureus [22]) was “Active”, the Activity (Acinetobacter baumannii [23]) was “Active” and the inhibition at 0.031 µg/mL (Staphylococcus aureus [24]) was 40%. It also gave an inhibition at 2 µg/mL (Acinetobacter baumannii [25]) of 50%, an Activity (Staphylococcus aureus [26]) of 60% and an inhibition at 4 µg/mL (Staphylococcus aureus [27]) of 88%. For the same compound, the inhibition at 32 µg/mL (Acinetobacter baumannii [28]) was 70%, the IC50 (Peptide deformylase) was 2.5 nM and the Activity [29] was “Non-toxic”. The ED50 (Acinetobacter baumannii [30]) was 30.4 mg/kg, the Activity [31] was “Non-toxic” and the Activity [32] was “Non-toxic”. For the same compound, the Activity [33] was “Non-toxic”, the Activity [34] was “Non-toxic” and the Activity (Staphylococcus aureus [35]) was 100%. The Activity (Acinetobacter baumannii [36]) was “Dose-dependent-effect”, the Activity (Acinetobacter baumannii [37]) was “Dose-dependent-effect” and the Activity (Acinetobacter baumannii [38]) was “Active”. The Activity (Acinetobacter baumannii [39]) was “inactive”, the Activity [40] was “Non-toxic” and the Activity [41] was “Non-toxic”.
